In patent publication US6723699B1, “Treating disorders by application of insulin-like growth factors and analogs” (Cephalon, Inc., priority 1989, dated 2004):
Where no end group is shown, it is not given here. [ ]: non-standard residue; d: D form. Tyr(3,5-I2) = N[C@@H](Cc1cc(I)c(O)c(I)c1)C(=O)O

Key:
[1] = tested on: E18 cortical neuronal cultures; assay: Cortical neuronal cell survival, calcein-AM fluorometric viability assay; format: cell-based, rat; conditions: for total number of cells surviving relative to control (in words): 100 μM peptide, 4 days, insulin/serum-free media
Experimental: To determine whether carboxy-terminal linear peptide derivatives of IGFs can promote the survival of cortical neuronal cells, dissociated cultures of embryonic rat cortex were prepared and assayed for the total number of viable cells present after incubation in the presence or absence of peptide. Cortices were dissected from E18 embryonic rats, dissociated by enzymatic digestion or mechanical dissociation and seeded at a density of 6.25×10^4 cells/cm^2 in defined insulin/serum-free media (Bottenstein and Sato, PNAS, 76:514-517, (1979)) in the presence or absence of 100 μM peptide. […] This compound is taken up by all cells but can only be converted to a fluorescent derivative by live cells. The relative fluorescence values obtained reflect the total viable cell number. […] NO: 5) (Example 22), and the amino acid sequence […] To determine the potency of the carboxy terminal peptides we analyzed the ability of peptides to promote cell survival. We measured the total number of surviving cells within cortical neuronal cultures relative to basal control cultures. FIG. 16 illustrates the concentration-response relationship for peptide […] All peptides examined are effective within the micromolar concentration range in the fluorometric viability assay.

[2] = tested on: 125I-[Threonine59]IGF-I binding to brain tissue sections; assay: 125I-[Threonine59]IGF-I binding displacement on rat brain tissue sections
Experimental: Brains were removed intact from adult Sprague-Dawley rats, frozen on powdered dry ice, and cut into 20 μm sections (at the level of the cerebellum and brain stem) which were
thaw-mounted onto gelatin-coated glass microscope slides (Herkenham and Pert, J. Neurosci. 2:1129-1149 (1982)). Using a modification of the method of Bohannon et al. (1986), the tissue sections were covered with 250 μl of HEPES assay buffer (see Example 1) containing 0.01 nM ^125I-[Threonine^59]IGF-I alone or in combination with unlabeled IGF-I, IGF-II, or synthetic peptide fragments thereof. The sections were incubated at 4° C. for 24 hours and then rinsed in three 1-minute changes (200 ml each) of ice-cold HEPES assay buffer. The tissue sections were then wiped off the slides with filter paper, and the tissue-bound radioactivity was measured in a Beckman Model 5500B Gamma Counter.

[3] = tested on: brain ornithine decarboxylase; assay: Induction of brain ornithine decarboxylase after intracerebral injection, 4 day old rats; format: in vivo, rat; conditions: 6 hours
Experimental: The in vivo activity of IGF-I, IGF-II or synthetic peptide derivatives of these molecules was tested using a biochemical marker for CNS neurotrophic activity, the induction of brain ornithine decarboxylase. The induction (i.e. increased activity) of ornithine decarboxylase has been reported to be a general marker for the actions of a variety of trophic factors. (Schwartz et al., Dev. Brain Res. 1:403-413 (1981); Kanje et al., Brain Res. 381:24-28 (1986); Russell et al., Life Sci. 19:1297-1306 (1976); MacDonnell et al. Proc. Natl. Acad. Sci. USA 74, 4681-4684 (1977); […] et al. Proc. Natl. Acad. Sci. USA 82, 4365-4368 (1985)). Sprague-Dawley rats, 4 days old, were injected intracerebrally (in the area of the lateral ventricle) with 5 μl of 0.1 M phosphate-buffered saline (PBS) containing IGF-I, IGF-II or a synthetic peptide derivative (1.25-2.5 μg dose, with 6 animals per treatment group). After 6 hours, the brains were removed, and ornithine decarboxylase was assayed essentially as described by Lewis et al., Proc. Natl. Acad. Sci. USA 75:1021-1023 (1978).

[4] = tested on: E18 rat cortices cultures; assay: Cortical neurite outgrowth / regeneration; format: cell-based; conditions: 100 μM peptide, 96 hours
Experimental: To determine whether carboxy-terminal linear peptides of IGFs could promote cortical neurite regeneration, dissociated preparations of E18 rat cortices were cultured in defined insulin/serum-free media in the presence or absence of 100 μM peptides: IGF-II(54-67) (SEQ ID NO:3), IGF-I(55-70) (SEQ ID NO:4), peptide TYCAPAKSE (SEQ ID NO:1), peptide EPYCAPPAKSE (SEQ ID NO:5), IGF-II(54-67; D-Y) (SEQ ID NO:45) and IGF-II(58-67) (SEQ ID NO:2). The cultures were observed 96 hours after peptide exposure and photomicrographs were taken.

[5] = tested on: cultured rat cortical cells; assay: [3H]-leucine incorporation in cultured rat cortical cells; format: cell-based; conditions: low density 24 hour mixed cortical cultures
Experimental: (§1) The ability of IGF-I and a synthetic derivative of IGF-II (IGF-II(54-67)) to increase the incorporation of [^3H]-leucine and to promote the survival of neurite bearing cells was examined in cultured rat cortical cells (the numbers “54-67” in IGF-II indicate the fragment includes amino acid residues 54-67 of native IGF-II).
(§2) Measurements were performed, using standard techniques known to those skilled in the art, on dissociated cortical cells obtained from day 18-19 embryonic rats. Cells were seeded at 1.5×10^4/cm^2 on poly-1-ornithine-laminin coated plastic tissue culture cells in serum-free N2 medium (Bottenstein et al. Proc. Natl. Acad. Sci. U.S.A. 76: 514-517 (1978)). [^3H]-leucine was added to cells at plating for the incorporation assay. Cultures were terminated 24 hours after plating and measured for either [^3H]-leucine incorporation or for the number of neuritic cells by microscopic examination.

[6] = target: T1, IGF-I receptor (Rattus norvegicus, UniProt P24062); assay: 125I-[Threonine59]IGF-I displacement (IGF-I receptor competition) assay, rat brain homogenate; format: binding; conditions: for PERCENT MAX. BOUND: peptide 100 μM
T1 construct: Brain tissue containing the cerebral cortex and cerebellum was dissected from adult Sprague-Dawley rats; from tissue; host or cells: adult Sprague-Dawley rat brain (cerebral cortex and cerebellum), homogenate pellet
Experimental: Brain tissue containing the cerebral cortex and cerebellum was dissected from adult Sprague-Dawley rats (Hilltop Lab Animals, Inc. Scottsdale, Pa.) and homogenized at low power for 5 minutes in a Brinkmann Polytron homogenizer (Westbury, N.Y.) containing 50 volumes of ice-cold buffer consisting of 10 mM HEPES, 0.5% BSA, 0.0125% NEM, 0.025% bacitracin, and 100 KIU/ml aprotinin, pH 7.6 (Bohannon et al., Endocrinology 119:943-945 (1986). Following homogenization, the tissue was collected after centrifugation at 7800×g for 20 minutes and resuspended in 10 volumes of assay buffer. Tissue (50 μl), 100 μl ^125I-[Threonine^59]IGF-I (20 pM), and 50 μl of buffer or peptides of varying concentration were added to 96-well plates and incubated on ice for 3 hours. After the incubation period, the tissue was collected on Whatman GF/C filters that had been pre-soaked in 0.01% polyethylenimine and washed four times with ice-cold assay buffer using a Brandel cell harvester (Gaithersburg, Md.). The filters were removed and the bound ^125I-[Threonine 59]IGF-I was measured using a Beckman Model 5500B Gamma Counter.

[7] = tested on: cortical neurons; assay: Survival of neurite bearing cells in cultured rat cortical cells; format: cell-based; conditions: 24 hours after plating
Experimental: as §1, §2

[8] = format: in vitro ADME
Experimental: The peptides of Examples 22 and 23 are modified peptides containing the D isomer of tyrosine (D-Y) at position 59 within IGF-II amino acids 54-67 or 58-67. These modifications were made to prevent peptide bond degradation due to enzymatic cleavage amino terminal to position 60 of IGF-II(54-67) and (58-67). Using a non-denaturing HPLC size exclusion chromatography technique the integrity of peptides IGF-II(54-67) and IGF-II(58-67) was analyzed before and after incubation with cells.

T1 sequence (P24062 31-737 limits assumed): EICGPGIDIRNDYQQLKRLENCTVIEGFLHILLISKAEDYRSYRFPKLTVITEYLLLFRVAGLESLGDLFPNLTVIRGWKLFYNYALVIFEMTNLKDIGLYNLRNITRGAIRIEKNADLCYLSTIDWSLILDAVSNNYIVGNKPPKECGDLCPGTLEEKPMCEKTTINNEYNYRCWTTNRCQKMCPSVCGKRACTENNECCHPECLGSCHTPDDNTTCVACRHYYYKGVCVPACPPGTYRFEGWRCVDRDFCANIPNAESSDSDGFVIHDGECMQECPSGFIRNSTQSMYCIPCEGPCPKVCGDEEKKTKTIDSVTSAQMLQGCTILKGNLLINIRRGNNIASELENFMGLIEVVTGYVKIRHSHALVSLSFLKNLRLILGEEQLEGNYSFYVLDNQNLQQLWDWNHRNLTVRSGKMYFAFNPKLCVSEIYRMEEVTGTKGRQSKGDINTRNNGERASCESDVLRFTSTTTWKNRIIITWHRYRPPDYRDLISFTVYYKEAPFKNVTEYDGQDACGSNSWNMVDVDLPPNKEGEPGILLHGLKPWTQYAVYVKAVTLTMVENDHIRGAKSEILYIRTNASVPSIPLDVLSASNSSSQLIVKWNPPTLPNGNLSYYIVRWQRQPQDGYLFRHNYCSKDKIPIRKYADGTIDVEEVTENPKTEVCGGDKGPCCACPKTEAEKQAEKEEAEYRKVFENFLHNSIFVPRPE
T1 sequence (P24062 742-1370 partner limits assumed): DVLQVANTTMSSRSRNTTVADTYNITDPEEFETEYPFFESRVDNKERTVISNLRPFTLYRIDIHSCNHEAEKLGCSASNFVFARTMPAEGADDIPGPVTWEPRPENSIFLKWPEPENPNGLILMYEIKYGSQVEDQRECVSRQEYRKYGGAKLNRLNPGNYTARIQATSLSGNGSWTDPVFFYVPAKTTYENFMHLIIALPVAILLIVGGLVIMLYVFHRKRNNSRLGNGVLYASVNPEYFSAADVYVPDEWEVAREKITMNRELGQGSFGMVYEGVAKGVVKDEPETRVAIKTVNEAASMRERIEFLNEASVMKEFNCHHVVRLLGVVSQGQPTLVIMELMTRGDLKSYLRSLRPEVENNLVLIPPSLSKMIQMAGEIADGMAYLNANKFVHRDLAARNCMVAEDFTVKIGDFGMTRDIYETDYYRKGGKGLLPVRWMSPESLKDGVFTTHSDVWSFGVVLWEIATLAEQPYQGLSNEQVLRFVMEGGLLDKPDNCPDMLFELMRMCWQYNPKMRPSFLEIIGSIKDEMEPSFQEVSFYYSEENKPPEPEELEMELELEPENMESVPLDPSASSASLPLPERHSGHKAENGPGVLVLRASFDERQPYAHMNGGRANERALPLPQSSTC

Substance	total number of cells surviving relative to control (in words) [1]	further results
ALLEKYCAKPAKSE [ALLEK YCAKP AKSE]	increased the total number of cells surviving	–
ALLET YCATP AKSE (ALLETYCATPAKSE) [IGF-II(54-67)]	increased the total number of cells surviving	PERCENT MAX. BOUND ([2]; peptide .025 mM): 132%; PERCENT MAX. BOUND ([2]; peptide .25 mM): 167%; brain ornithine decarboxylase activity (in words) [3]: increased brain ornithine decarboxylase activity; neurite outgrowth / regeneration (in words) [4]: neurite regenerative responses were observed; [3H]-leucine incorporation (in words) [5]: increased [^3H]-leucine incorporation; PERCENT MAX. BOUND [6]: 94%; displacement of 125I-[Threonine59]IGF-I (in words) ([6]; rat brain homogenate): not significantly effective displacers; survival of cortical neurons (neurite bearing cells) (in words) [7]: increased the survival of cortical neurons
ALLETDYCATPAKSE (ALLET[dY]CATPAKSE) [IGF-II(54-67; D-Y)]	increased the total number of cells surviving	neurite outgrowth / regeneration (in words) [4]: neurite regenerative responses were observed; stability against degradation when incubated with cells (in words) [8]: stabilized against degradation when incubated with cells
APLKP AKSA (APLKPAKSA) [IGF-I(62-70)]	–	PERCENT MAX. BOUND [6]: 83%
APSTCEYKA [APSTC EYKA]	increased the total number of cells surviving	–
CAPAKSE [CAPAK SE]	increased the total number of cells surviving	–
CATPA KSE (CATPAKSE) [IGF-II (60-67)]	increased the total number of cells surviving	–
EALLETYCATPAKSE [EALLE TYCAT PAKSE]	increased the total number of cells surviving	–
EPYCAPPAKSE	increased the total number of cells surviving	neurite outgrowth / regeneration (in words) [4]: neurite regenerative responses were observed
GYGSS SRRAP QT (GYGSSSRRAPQT) [IGF-I(30-41)]	–	PERCENT MAX. BOUND [6]: 94%
LETYC ATP (LETYCATP) [IGF-II (56-63)]	increased the total number of cells surviving	–
RRLEMYCAPLKPAKSA [IGF-I(55-70)]	increased the total number of cells surviving	neurite outgrowth / regeneration (in words) [4]: neurite regenerative responses were observed
TDYCAPAKSE (T[dY]CAPAKSE)	increased the total number of cells surviving	–
TDYCATPAKSE (T[dY]CATPAKSE) [IGF-II(58-67; D-Y)]	increased the total number of cells surviving	–
TPAKS E (TPAKSE) [IGF-II(62-67)]	–	PERCENT MAX. BOUND [6]: 83%
TY(I2)CAP AKSE (T[Tyr(3,5-I2)]CAPAKSE) [iodinated-TYCAPAKSE]	increased the total number of cells surviving	–
TYCAP A (TYCAPA)	increased the total number of cells surviving	–
TYCAPAKSE	increased the total number of cells surviving	neurite outgrowth / regeneration (in words) [4]: neurite regenerative responses were observed; concentration-response of cortical neuronal cell survival (in words) ([1]; relative to basal control cultures): promotes cortical neuronal cell survival in a dose-dependent manner
TYCAT PAK (TYCATPAK) [IGF-II (58-65)]	increased the total number of cells surviving	–
TYCATPAKSE [IGF-II(58-67)]	increased the total number of cells surviving	neurite outgrowth / regeneration (in words) [4]: neurite regenerative responses were observed
YCAPA	increased the total number of cells surviving	–
YCAPAKSE [YCAPA KSE]	increased the total number of cells surviving	–
